Laboratory results reported in ChEMBL document CHEMBL4004816, “Complementarity of DFT Calculations, NMR Anisotropy, and ECD for the Configurational Analysis of Brevipolides K-O from Hyptis brevipes” (J Nat Prod, 2017).

What was measured:
Format in all cases: functional, cell-based
HCT-15 = experiment: Cytotoxicity against human HCT15 cells assessed as growth inhibition after 72 hrs by SRB assay; conditions: HCT-15, 72 h
MCF7 = experiment: Cytotoxicity against human MCF7 cells assessed as growth inhibition after 72 hrs by SRB assay; conditions: MCF7, 72 h
KB = experiment: Cytotoxicity against human KB cells assessed as growth inhibition after 72 hrs by SRB assay
PC-3 = experiment: Cytotoxicity against human PC3 cells assessed as growth inhibition after 72 hrs by SRB assay; conditions: PC-3, 72 h
HeLa = experiment: Cytotoxicity against human HeLa cells assessed as growth inhibition after 72 hrs by SRB assay
HEp-2 = experiment: Cytotoxicity against human Hep2 cells assessed as growth inhibition after 72 hrs by SRB assay; conditions: HEp-2, 72 h

| SMILES | IC50 (HCT-15) [µM] | IC50 (MCF7) [µM] | IC50 (KB) [µM] | IC50 (PC-3) [µM] | IC50 (HeLa) [µM] | IC50 (HEp-2) [µM] |
| --- | --- | --- | --- | --- | --- | --- |
| C[C@H](OC(=O)/C=C/c1ccc(O)cc1)[C@@H]1CC[C@H]([C@H](O)[C@H]2CC=CC(=O)O2)O1 | > 10 | > 10 | 3.6 | > 10 | 9.5 | > 10 |
| CC[C@]1(O)C[C@@H]2CN(CCc3c([nH]c4ccccc34)[C@@](C(=O)OC)(c3cc4c(cc3OC)N(C)[C@H]3[C@@](O)(C(=O)OC)[C@H](OC(C)=O)[C@]5(CC)C=CCN6CC[C@]43[C@@H]65)C2)C1 [VINBLASTINE] | 0.002 | 0.004 | 0.006 | 0.001 | 0.001 | 0.007 |
| C[C@H](OC(=O)/C=C\c1ccc(O)cc1)[C@@H]1CC[C@H]([C@H](O)[C@H]2CC=CC(=O)O2)O1 | > 10 | 9.3 | 7.5 | 8.8 | 3.3 | 7.7 |
| COc1ccc(/C=C\C(=O)O[C@@H](C)[C@@H]2CC[C@H]([C@H](O)[C@H]3CC=CC(=O)O3)O2)cc1 | > 10 | > 10 | 9.5 | 10 | 4.2 | > 10 |
| COc1ccc(/C=C/C(=O)O[C@@H](C)[C@@H]2CC[C@H]([C@H](O)[C@H]3CC=CC(=O)O3)O2)cc1 | > 10 | > 10 | 1.7 | 7.5 | 6 | 5.7 |
| C[C@H](OC(=O)/C=C/c1ccc(O)c(O)c1)[C@@H]1CC[C@H]([C@H](O)[C@H]2CC=CC(=O)O2)O1 | > 10 | > 10 | 4.9 | > 10 | 6.9 | 9.4 |
